Laboratory results reported in patent US12186307B2, “Methods of treating epilepsy” (YALE UNIVERSITY, priority 2019, dated 2025).
Where “and” joins values, the source holds several entries; their conditions need not be identical. Identical values can stand only once. Entries after “also recorded” stand apart in the source; their conditions may differ.

Key:
[1] = tested on: Rheb^CA-expressing neurons; test: Cell placement, soma size and dendrite (Sholl) analysis in Rheb^CA mouse model of FCM; format: in vivo, CD-1 mice
Method: (§1) All experiments were performed on CD-1 mice (Charles River) of either sex.
(§2) Each DNA plasmid was diluted in sterile PBS (pH 7.4). Timed pregnant mice (embryonic day, E15) were anesthetized with isoflurane. After exposing the uterine horns, ˜1.5 μl of DNA solution, containing 0.1% fast green added as an injection tracer, was injected into the lateral ventricle via a pulled glass capillary. PBS-soaked tweezer-type electrodes (model 520, BTX) were then positioned on the head of the fetuses across the uterine wall and 6 square-pulses at […] and 50 ms duration every 950 ms were applied using a pulse generator (ECM830, BTX). At birth, mice were prescreened for successful electroporation by detecting the expression of fluorescent protein markers on a fluorescence-enabled stereo microscope (SZX16, Olympus). Morphology and seizure data in different conditions (Flna vs Luciferase shRNA or vehicle vs PTI-125 treatment) were compared between littermate mice. For most experiments, mice received unilateral electroporation, except for experiments in FIG. 4F (P8-P65 PTI-125 treatment on seizures) for which mice received bilateral electroporation.
(§3) Mice: Mice were transcardially perfused with PBS followed by 4% paraformaldehyde. Brains were then dissected and post-fixed in 4% paraformaldehyde for 24 hours before being transferred to a solution of 3% agarose solution in PBS. These were then sectioned coronally on a vibratome at a thickness of 50 μm. For immunofluorescence, free-floating sections were incubated for 1 hour in a blocking solution (2% bovine serum albumin and 0.1% Triton-X in PBS) at room temperature and then incubated with primary antibodies (Table 5) overnight at 4° C. Sections were washed with PBS+0.05% Tween 20 and then placed in blocking solution containing secondary antibodies for 1 hour at room temperature. All images were taken using an FV1000 confocal microscope (Olympus).
(§4) Quantification of the number of layer 2/3 neurons in the anterior cingulate cortex, the boundary between layer 2/3 and layer 5 was determined using ER81 staining, which labels layer 5 (FIGS. 14A-14B)Soma size was quantified by outlining the soma of GFP+ cells and measuring the area using ImageJ. Intensity of phospho-S6 and FLNA in sections was quantified by outlining somas of cells and measuring the mean gray value. Then, the values in electroporated cells (in mice) or SMI-311-positive cells (in humans) were normalized to those in non-electroporated cells or unstained cells surrounding electroporated cells to control for variability of staining between sections.
To analyze neuronal morphology and, in particular dendritic trees, only a few neurons per section were labeled using a Cre-based strategy as previously reported. More specifically, an inducible DsRed2 vector (pCAG-LoxP-stop-LoxP-DsRed2, pCALNL-DsRed2) combined with a Cre vector (pCAG-Cre) was used at very low concentration (1 ng/μl). The Cre plasmid led to DsRed expression in only 3-5 neurons per slice allowing to cleanly analyze the dendritic morphology of individual neurons (FIGS. 15A-15C)Images of DsRed-expressing basal dendrites were acquired in coronal sections using a Fluoview 1000 confocal microscope with a 20× objective. Basal dendrites were traced with simple neurite tracer software (FIJI and Neuronstudio). Sholl analyses were carried out using the number of intersections in 10-μm-increment concentric circles as a measure of morphological complexity. Z stacks from three different square fields of view were taken from three different sections. Analysis was performed blindly with more than four animals and more than 20 cells per condition (see Table 3 for actual n number).
(§5) PTI-125 was dissolved in saline at a concentration of 2.4 mg/ml. Mice received two intraperitoneal injections of 6 or 12 mg/kg PTI-125 every day. Saline was used as vehicle treatment.

[2] = tested on: Rheb^CA-expressing mice; test: Video-EEG recording of seizures in Rheb^CA-expressing mice; format: in vivo, CD-1 mice
Method: as §1
as §2, with “Olympus).” for “Olympus). Morphology and seizure data in different conditions (Flna vs Luciferase shRNA or vehicle vs PTI-125 treatment) were compared between littermate mice. For most experiments, mice received unilateral electroporation, except for experiments in FIG. 4F (P8-P65 PTI-125 treatment on seizures) for which mice received bilateral electroporation.”
Mice were anesthetized with isoflurane and positioned on a stereotaxic frame using ear bars. A rostro-caudal midline incision was made in the skin to expose the skull surface. Four pilot holes (two bilateral holes 1 mm anterior to bregma and two bilateral holes 5 mm posterior to bregma, each 1.5 mm lateral to sagittal suture), was tapped through the skull to dura using a microdrill (Roboz Surgical Instrument, #RS6300). […] Silver conductive paint (Electron Microscopy Science) was applied around the screw threads to ensure a solid connection with the headmount. The entire implant was insulated using dental acrylic. Mice were allowed to recover in their home cage for seven days before video-EEG monitoring.
Mice were housed in individual recording chambers in a light-, temperature- and humidity-controlled room during video-EEG monitoring. Mice were freely moving inside the chambers and had ad libitum access to food and water. Synchronous video-EEG recording was acquired using a three-channel EEG tethered system (Pinnacle Technology, cat. no. 8200-K1-iSE3) and Sirenia Acquisition software (Pinnacle Technology). Mice were continuously recorded 24 hours/day for 5-6 consecutive days or 31-45 days.
Seizure frequency and duration were analyzed using Sirenia Seizure Basic software (Pinnacle Technology). All analyses were performed blinded to experimental groups by at least two investigators. The entire EEG traces were manually reviewed for the occurrence of seizures, defined as a sudden onset of high amplitude activity with a characteristic pattern of progressive frequency and amplitude changes over the course of the event lasting≥10 sec. Seizure onset was defined by high amplitude firing>2× baseline and seizure termination was defined by a return to baseline activity. Video data were inspected for behavioral correlates including myoclonic jerks, tonic-clonic activities, convulsions, and loss of postural control (rearing and falling) and were used as secondary verification of seizures. For each individual animal, mean number of seizures per day was obtained by dividing the total number of seizures by the total number of recording hours and multiplied by 24.
Saline was used as vehicle treatment.

[3] = tested on: phospho-S6; test: Phospho-S6 (read-out of mTORC1 activity) immunostaining / immunoblot in mouse cortex; format: in vivo, CD-1 mice
Method: as §3, §4
Human and mouse samples were lysed in RIPA buffer (Thermo fisher, #89900) with protease/phosphatase inhibitor cocktail (Cell Signaling Technology, #5872), 5 mM EDTA, and 20 units/ml DNase I (Roche). All lysates were run on Tris-glycine gels (Bio-Rad, #456-1086 for mouse samples and #456-1046 for human samples). Proteins were transferred to PVDF and blocked in 5% milk and incubated with primary antibodies (concentrations of primary antibody are listed in Table 5). HRP-conjugated anti-rabbit or anti-mouse were used as secondary antibodies. Phosphorylated and total proteins were blotted on the same membrane after stripping (Thermo fisher, #21059). […]

[4] = tested on: Neuro2a cells; test: S6 phosphorylation immunoblot in transfected Neuro2a cells; format: cell-based; settings: in vitro, Neuro2a cells transfected with shRNA
Method: Neuro2a cells were grown at 37° C. with 5% CO2 in a complete media consisting of high glucose DMEM (Gibco, #11965-092), 5% heat-inactivated fetal bovine serum (Gibco, #16140071), and 1% penicillin-streptomycin. Cells were plated in 12 well culture plates (Corning, #0720082) and transfected when they reached ˜70% confluence. Transfection was done using PolyJet transfection reagent (Signagen, SL100688) according to the manufacturer's instructions. Cells were lysed 72 hours after transfection for all experiments.
Human and mouse samples were lysed in RIPA buffer (Thermo fisher, #89900) with protease/phosphatase inhibitor cocktail (Cell Signaling Technology, #5872), 5 mM EDTA, and 20 units/ml DNase I (Roche). All lysates were run on Tris-glycine gels (Bio-Rad, #456-1086 for mouse samples and #456-1046 for human samples). Proteins were transferred to PVDF and blocked in 5% milk and incubated with primary antibodies (concentrations of primary antibody are listed in Table 5). HRP-conjugated anti-rabbit or anti-mouse were used as secondary antibodies. Phosphorylated and total proteins were blotted on the same membrane after stripping (Thermo fisher, #21059). All density measurements were performed using NIH Image J software. In the case where cross-blot normalization was required a reference sample was loaded on each gel to account for inter-gel variability (FIGS. 11A-11B).

[5] = tested on: seizures in individuals with TSC or FCDII; settings: clinical trial, cited from earlier work
[6] = Body weight during treatment of Rheb^CA mice; format: in vivo, CD-1 mice; settings: 12 mg/kg i.p. twice daily, P8-P60
Method: as §1, §5

[7] = biological target: native FLNA (Homo sapiens, UniProt P21333); settings: reported; cited from earlier work
[8] = biological target: aberrant FLNA in Alzheimer's disease (Homo sapiens, UniProt P21333); settings: reported; cited from earlier work
[9] = 6 mg/kg i.p. twice daily, P8 to P28
[10] = 12 mg/kg i.p. twice daily, P8 to P28
[11] = treatment after seizure onset, P29 to P54

Sequence of native FLNA (P21333 whole entry, species assumed): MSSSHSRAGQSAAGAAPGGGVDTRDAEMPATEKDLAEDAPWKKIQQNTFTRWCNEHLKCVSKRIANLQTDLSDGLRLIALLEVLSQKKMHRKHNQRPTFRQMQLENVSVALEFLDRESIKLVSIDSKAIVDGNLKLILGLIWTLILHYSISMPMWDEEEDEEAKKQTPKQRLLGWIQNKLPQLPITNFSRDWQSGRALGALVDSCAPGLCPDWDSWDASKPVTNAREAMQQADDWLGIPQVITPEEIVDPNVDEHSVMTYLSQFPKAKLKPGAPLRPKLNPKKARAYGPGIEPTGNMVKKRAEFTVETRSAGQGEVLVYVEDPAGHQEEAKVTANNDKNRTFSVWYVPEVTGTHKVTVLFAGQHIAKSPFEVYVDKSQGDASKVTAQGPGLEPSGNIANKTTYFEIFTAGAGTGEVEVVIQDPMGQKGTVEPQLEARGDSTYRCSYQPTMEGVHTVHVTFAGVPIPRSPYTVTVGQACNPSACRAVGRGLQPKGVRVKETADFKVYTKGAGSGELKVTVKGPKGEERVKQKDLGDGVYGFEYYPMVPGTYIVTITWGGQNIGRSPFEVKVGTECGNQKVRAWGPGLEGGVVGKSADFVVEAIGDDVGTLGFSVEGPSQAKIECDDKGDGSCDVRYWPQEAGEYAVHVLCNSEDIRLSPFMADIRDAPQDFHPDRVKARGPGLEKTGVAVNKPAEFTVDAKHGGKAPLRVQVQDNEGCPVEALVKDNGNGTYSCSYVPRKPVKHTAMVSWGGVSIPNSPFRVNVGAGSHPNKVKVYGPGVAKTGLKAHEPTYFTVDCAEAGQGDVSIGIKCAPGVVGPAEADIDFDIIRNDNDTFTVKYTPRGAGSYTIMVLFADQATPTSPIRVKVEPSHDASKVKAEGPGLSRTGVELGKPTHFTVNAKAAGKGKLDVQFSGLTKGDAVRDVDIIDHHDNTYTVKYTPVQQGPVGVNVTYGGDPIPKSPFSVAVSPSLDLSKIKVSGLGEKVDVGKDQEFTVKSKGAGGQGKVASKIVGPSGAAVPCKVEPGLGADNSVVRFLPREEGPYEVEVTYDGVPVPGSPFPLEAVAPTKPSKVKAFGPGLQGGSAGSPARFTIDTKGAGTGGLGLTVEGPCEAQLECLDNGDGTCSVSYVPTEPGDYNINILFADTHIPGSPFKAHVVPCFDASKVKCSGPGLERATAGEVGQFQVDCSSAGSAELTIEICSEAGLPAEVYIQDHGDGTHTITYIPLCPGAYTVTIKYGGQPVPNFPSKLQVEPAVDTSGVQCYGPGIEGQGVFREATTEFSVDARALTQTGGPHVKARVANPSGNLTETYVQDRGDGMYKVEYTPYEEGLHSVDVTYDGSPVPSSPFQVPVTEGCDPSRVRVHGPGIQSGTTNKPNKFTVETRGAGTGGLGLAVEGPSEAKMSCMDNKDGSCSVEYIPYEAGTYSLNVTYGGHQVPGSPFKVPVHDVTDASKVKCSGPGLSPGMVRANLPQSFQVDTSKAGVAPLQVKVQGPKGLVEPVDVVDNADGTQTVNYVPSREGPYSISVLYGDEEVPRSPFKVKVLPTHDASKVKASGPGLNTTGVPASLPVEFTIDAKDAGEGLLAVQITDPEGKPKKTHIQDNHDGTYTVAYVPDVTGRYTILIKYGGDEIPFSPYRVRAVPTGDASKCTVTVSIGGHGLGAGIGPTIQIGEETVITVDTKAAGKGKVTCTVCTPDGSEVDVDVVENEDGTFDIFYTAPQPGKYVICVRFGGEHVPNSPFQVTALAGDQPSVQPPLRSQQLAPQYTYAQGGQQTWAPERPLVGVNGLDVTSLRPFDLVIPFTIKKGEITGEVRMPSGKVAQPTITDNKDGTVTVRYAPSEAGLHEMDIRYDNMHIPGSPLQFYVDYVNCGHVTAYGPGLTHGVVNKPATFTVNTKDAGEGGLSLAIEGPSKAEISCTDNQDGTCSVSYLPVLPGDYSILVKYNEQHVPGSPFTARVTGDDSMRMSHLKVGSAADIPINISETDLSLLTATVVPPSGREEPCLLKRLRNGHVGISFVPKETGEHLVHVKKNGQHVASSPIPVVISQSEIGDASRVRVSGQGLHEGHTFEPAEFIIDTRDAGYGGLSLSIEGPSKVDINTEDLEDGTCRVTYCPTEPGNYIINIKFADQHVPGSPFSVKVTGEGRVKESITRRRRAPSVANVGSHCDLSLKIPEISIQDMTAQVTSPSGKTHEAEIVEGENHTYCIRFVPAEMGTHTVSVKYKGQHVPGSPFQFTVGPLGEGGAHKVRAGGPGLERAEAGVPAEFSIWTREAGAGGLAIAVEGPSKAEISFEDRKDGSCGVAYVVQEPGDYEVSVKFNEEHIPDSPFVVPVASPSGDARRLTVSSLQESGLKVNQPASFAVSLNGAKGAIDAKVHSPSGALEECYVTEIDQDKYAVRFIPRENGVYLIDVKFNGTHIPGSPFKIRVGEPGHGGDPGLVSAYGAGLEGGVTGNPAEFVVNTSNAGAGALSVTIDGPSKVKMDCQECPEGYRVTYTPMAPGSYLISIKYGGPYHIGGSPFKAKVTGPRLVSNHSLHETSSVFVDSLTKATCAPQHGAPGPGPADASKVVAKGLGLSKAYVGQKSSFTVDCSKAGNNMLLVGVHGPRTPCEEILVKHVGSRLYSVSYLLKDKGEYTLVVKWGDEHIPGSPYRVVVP
Sequence of aberrant FLNA in Alzheimer's disease (P21333 whole entry): as the sequence (P21333 whole entry, species assumed) above

Compound: Flna shRNA: short hairpin RNA against Flna, expressed from plasmid; sequence 5′ CCTATGAAGCTGGAACCTATA 3′ (expressed from plasmid pCGLH)
- total dendritic length ([1]; Rheb^CA neurons co-expressing shRNA by E15 IUE, P28, 194% with control shRNA): 130 % of control
- soma size ([1]; Rheb^CA neurons co-expressing shRNA by E15 IUE, P28, 372% with control shRNA): 250 % of control
- misplaced cells (neuronal misplacement) ([1]; Rheb^CA neurons co-expressing shRNA by E15 IUE, analysed at P28, 50% with control shRNA, 2% in control): 23%
- death of mice ([2]; out of 10 mice, 4 out of 16 died in the control group): no mice died
- lowering of seizure frequency compared to luciferase shRNA ([2]; video-EEG for 5 days starting at P61): 83%
- mean seizure frequency ([2]; video-EEG for 5 days starting at P61, 12.6 with luciferase shRNA): 2.2 seizures/day
- increased phospho-S6 intensity in vivo ([3]; GFP+ Rheb^CA-expressing neurons in EEG-recorded mice): did not prevent
- Rheb^CA-induced increased S6 phosphorylation [4]: did not reduce

Compound: CO[C@H]1C[C@@H]2CC[C@@H](C)[C@@](O)(O2)C(=O)C(=O)N2CCCC[C@H]2C(=O)O[C@H]([C@H](C)C[C@@H]2CC[C@@H](OCCO)[C@H](OC)C2)CC(=O)[C@H](C)/C=C(\C)[C@@H](O)[C@@H](OC)C(=O)[C@H](C)C[C@H](C)/C=C/C=C/C=C/1C [everolimus]
- patients with reduced seizure frequency ([5]; highest dose): 40%
- patients who saw no improvements [5]: 60%
- side-effects [5]: had side-effects

Compound: CN1CCC2(CC1)NCC(=O)N2Cc1ccccc1 [PTI-125]
- dendritic dysmorphogenesis [1, 9]: partially rescued
- neuronal soma size [1, 9]: partially rescued
- dendritic dysmorphogenesis [1, 10]: partially rescued
- neuronal soma size [1, 10]: partially rescued
- dendritic dysmorphogenesis [1, 11]: partially, but significantly, rescued
- increased soma size [1, 11]: partially, but significantly, rescued
- cell misplacement (neuronal placement) ([1]; treatment starting at P8, 12 mg/kg, brain sections from recorded mice): not affected; also recorded: did not rescue
- seizure frequency ([2]; 12 mg/kg i.p. twice daily P8-P65, recorded P61 to P66, vehicle 5.1): 1.4 seizures/day
- Number of mice without/with seizures per condition ([2]; FIG. 6A, all treatments combined, vehicle 3/29): 11/32
- overall reduction in seizure frequency compared to vehicle-treated littermates ([2]; all PTI-125 treatments combined (n=32 vs n=27)): 66%
- seizure-free mice ([2]; all PTI-125 treatments combined, vehicle 11%): 35%
- lowering of seizure frequency compared to vehicle-treated mice ([2]; treatment P29 to P54, recorded P50-P54): 69% and 67%
- seizure frequency ([2]; treatment P29 to P54, recorded P50-P54, vehicle 2.7): 0.84 seizures/day
- reduction of seizure frequency ([2]; treatment prior to seizure onset, 12 mg/kg P8-P65, vs vehicle): 73%
- reduction in seizure frequency prior to vs after treatment in the same mice ([2]; young adult mice (P61-P106), 33-day treatment): 60%
- change of seizure frequency over time ([2]; young adult mice switched from vehicle to PTI-125 after 12 days of recordings, 20-day treatment): did not have the increase in seizure frequency observed in the vehicle group
- mean seizure frequency ([2]; young adult mice, after 33-day treatment, 3.9 prior to treatment): 1.6 seizures/day
- phospho-S6 expression in the cortex ([3]; nonelectroporated mice, 12 mg/kg): not affected
- phospho-S6 intensity in brain sections ([3]; recorded Rheb^CA mice, 12 mg/kg P8-P65): not affected
- body weight [6]: did not affect
- affinity for native FLNA [7]: picomolar
- affinity for aberrant FLNA in Alzheimer's disease [8]: femtomolar
